This is an account of results in patent US4923865A, “Substituted 1-(1H-imidazol-4-yl)alkyl-benzamides as anti-ischemics and as alpha-2-adrenergic receptor agonists” (U C B Societe Anonyme, priority 1988, dated 1990).

Data set [1] deals with T1, presynaptic α2 -adrenergic receptors (Cavia porcellus, UniProt Q60474).
T1 construct: Stimulation of a guinea-pig ileum; from tissue; host or cells: guinea-pig ileum longitudinal muscle strips
T1 sequence (Q60474 1-464): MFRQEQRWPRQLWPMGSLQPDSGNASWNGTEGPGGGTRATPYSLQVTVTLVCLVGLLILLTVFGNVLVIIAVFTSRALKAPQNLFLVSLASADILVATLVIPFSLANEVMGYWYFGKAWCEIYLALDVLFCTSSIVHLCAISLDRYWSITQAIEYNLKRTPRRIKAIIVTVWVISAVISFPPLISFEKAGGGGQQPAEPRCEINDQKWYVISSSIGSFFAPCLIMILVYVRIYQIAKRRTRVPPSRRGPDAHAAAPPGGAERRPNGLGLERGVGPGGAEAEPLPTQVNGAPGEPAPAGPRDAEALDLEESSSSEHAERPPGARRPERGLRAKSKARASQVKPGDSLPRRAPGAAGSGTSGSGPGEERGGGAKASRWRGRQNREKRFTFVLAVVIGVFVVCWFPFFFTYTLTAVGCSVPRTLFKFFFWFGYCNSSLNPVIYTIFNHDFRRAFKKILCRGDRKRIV
The experiment in a line: Stimulation of the isolated guinea-pig atria (reduction in tachycardia). The settings on record: isolated guinea-pig atria, electrical stimulation; read-out: IC30 (30% reduction in the maximum tachycardia). The text has this: (b) Stimulation of the isolated guinea-pig atria. The release of noradrenalin at the level of the nerve endings is mediated by a feedback regulating mechanism through the presynaptic α2 -adrenergic receptors. […] Ed. D. S. DAVIES, J. L. REID, Pitman, London.
The electrical stimulation of the isolated guinea-pig atria induces a release of noradrenalin which results in an increase in the rate of the heart beat (tachycardia). This tachycardia is inhibited by an α2 -agonist such as, for example, clonidine, in a proportion which depends on the dose of the agonist used. The action of the α2 -agonist may be limited in the presence of an α2 -specific antagonist such as α-yohimbine.
The in vitro activity of the compounds of the invention on the presynaptic α2 -adrenergic receptors has been studied on the isolated guinea-pig atria, electrically stimulated according to the method described by I. C. MEDGETT et al., Naunyn-Schmiedeberg's Arch. Pharmacol. 304, (1978), 215-221. The compound to be studied is tested in increasing concentrations ranging from 10^-10 to 10^-3 mole/l. The concentration (IC30 in mole/l) which causes a 30% reduction in the maximum tachycardia obtained initially during the electrical stimulation of the atria in the absence of the compound to be tested, is determined.
On the other hand, in the presence of a concentration of 10^-6 mole/l of α-yohimbine, the concentration of compound A necessary to obtain a reduction of 30% in the tachycardia is greater than 10^-7 mole/l.

Data set [2] has as its target T1, presynaptic α2 -adrenergic receptors. Nature of the data set: Inhibition of the contraction of electrically stimulated guinea-pig ileum. From the text:
(c) Stimulation of a guinea-pig ileum. Longitudinal muscles strips attached to an isometric strain gauge are suspended in Tyrode's solution and are stretched under a tension of 1 g (G. M. DREW. Brit. J. Pharmacol. 64, (1978), 293-300; M. ANDREJAK et al., Naunyn-Schmiedelberg's Arch. Pharmacol. 314, (1980), 83-87).
Electrical stimulation of the parasympathetic nerves associated with the ileum fragments causes a contraction of the muscle. This contraction is reduced in the presence of a presynaptic α2 -agonist and the magnitude by which the contraction is reduced depends on the concentration of the agonist used. This effect is antagonized by the simultaneous presence of an α2 -antagonist such as α-yohimbine. The compounds to be studied have been tested at increasing concentrations ranging from 10^-10 to 10^-3 mole/l.
The concentration (IC50 in mole/l) that reduces by 50% the intensity of the contraction of the muscle is determined.
In the presence of α-yohimbine at a concentration of 10^-6 mole/l, the concentration of the compounds A or B, for example, that is required for reducing muscle contraction intensity by 50% is higher, and becomes greater than 10^-6 mole/l, which gives additional confirmation that the compounds of the invention act really at the level of the presynaptic α2 -adrenergic receptors.

A further data set deals with myocardial ischemia. The experiment in a line: Artificially induced acute coronary insufficiency in an awake dog (ST-segment elevation). The settings on record: Canis lupus familiaris, 0.1 h, intravenous, 6 min coronary occlusion, groups of ten animals, read-out: DE20 (dose producing a mean reduction of at least 20% of the ST-segment elevation). It counts as in vivo. From the text:
Because of the reduction in the oxygen supply which results from this, the occlusion produces myocardial ischemia which is expressed on the electrocardiogram by a reproducible and quantifiable ST-segment elevation. The anti-ischemic action of a compound results in a reduction of the magnitude of the ST-segment elevation. (P. R. MAROKO and E. BRAUNWALD, Circulation, 53, (1976, Suppl. I), 162-168; S. E. EPSTEIN et al., Circulation, 53, (1976, Suppl. I), 191-197).

The next data set deals with male NMRI mice. Nature of the data set: Toxicity, Irwin's test (lethal dose). Type of data set: in vivo. The settings on record: intraperitoneal. Here is the method:
5. Toxicity. The toxicity of the compounds according to the present invention has been determined in male NMRI mice by means of Irwin's test (S. IRWIN, Psychopharmacologia, 13, (1968), 222-257).
Progressive doses of the test compound are administered intraperitoneally to groups of three mice until the lethal dose is reached (dose causing the death of two out of three animals within 48 hours). In Table IX below, the lethal dose in mg/kg found for the compounds of the invention is given. It can be seen from this Table that the compounds of the invention are not very toxic.

The subject of data set [3] is stenosis at the level of a coronary artery. The experiment in a line: Effort trial on a moving belt in dogs with coronary artery stenosis. Type of data set: in vivo, dog. The settings on record: maximum effort at 12 Km/h for 1 minute. The protocol:
(b) Effort trial on a moving belt. In this test, a group of at least four dogs is used (equipped with intracardiac electrodes), the dogs having an organic stenosis at the level of a coronary artery. This stenosis causes imbalance between the demand and supply of oxygen when the animal is required to make an effort. This imbalance is expressed on the electrocardiogram by an increase in the ST-segment.
In the trial, the dog runs at a speed of 12 km/h on a moving belt having a slope of 15°. This maximum effort is required for one minute. During the trial, the increase in the ST-segment is recorded, together with the natural increase in the pulse rate. The experiment is repeated at least four times, and the mean of the values obtained is taken as reference (100%) for the group of animals. The animals are then allowed to rest for a minimum of 24 hours before being subjected to a new effort trial under the influence of the compound to be studied.
The compound to be studied is administered slowly (over 1 minute) by intravenous injection 5 minutes before the new effort trial. In the course of the latter, the variations in the same parameters are recorded.

The mark [4] stands for this setting: guinea-pig ileum, electrical stimulation, read-out: IC50 (reduces by 50% the intensity of the contraction of the muscle).

Where two headings read alike, the source gives them in different places.

Consider `Clc1cccc(Cl)c1N=C1NCCN1` [clonidine, reference compound], for which, in data set [1], the IC30 (as a rule, the point of the concentration-response curve where the effect stands at 30%) worked out at 3.2 nM. Besides, the IC50 in data set [2] (setting [4]) stood at 20 nM.
With `NC(=O)c1cc(Cc2c[nH]cn2)ccc1O` [G, 2-hydroxy-5-[(1H-imidazol-4-yl)methyl]-benzamide], the ED20 in the data set on myocardial ischemia is less than 1 µmol/kg. In addition, in the data set on male NMRI mice, the “lethal dose (death of two out of three animals within 48 hours)” value (“lethal dose” below) was found to be 651 mg/kg.
Turning to `Cl.NC(=O)c1c(O)ccc(Cc2c[nH]cn2)c1O` [I, 2,6-dihydroxy-3-[(1H-imidazol-4-yl)methyl]-benzamide hydrochloride], in data set [2] (setting [4]), the IC50 is 300 nM. Further, the ED20 in the data set with myocardial ischemia came to 0.32 µmol/kg. Further, the “lethal dose” value with male NMRI mice was more than 270 mg/kg.
In the case of `Cc1ccc(Cc2c[nH]cn2)c(O)c1C(N)=O.Cl` [K, 2-hydroxy-3-[(1H-imidazol-4-yl)methyl]-6-methylbenzamide hydrochloride], the ED20 in the data set on myocardial ischemia was 0.32 µmol/kg. In the data set with male NMRI mice, the “lethal dose” value is more than 268 mg/kg.
As for `Cc1c(Cc2c[nH]cn2)ccc(O)c1C(N)=O.Cl` [O, 6-hydroxy-3-[(1H-imidazol-4-yl)methyl]-2-methylbenzamide hydrochloride], the “lethal dose” value in the data set on male NMRI mice is recorded as more than 268 mg/kg.
As to `CC(C)(C)c1cc(Cc2c[nH]cn2)c(O)c(C(N)=O)c1` [J, 5-tert-butyl-2-hydroxy-3-[(1H-imidazol-4-yl)methyl]-benzamide], the IC50 in data set [2] (setting [4]) was found to be 30000 nM.
With `Cl.O=C(NCCO)c1cccc(Cc2c[nH]cn2)c1O` [E, 2-hydroxy-N-(2-hydroxyethyl)-3-[(1H-imidazol-4-yl)methyl]-benzamide hydrochloride], the IC50 in data set [2] (setting [4]) was found to be 60000 nM. Moreover, in the data set on myocardial ischemia, the ED20 was less than 3 µmol/kg. In the data set with male NMRI mice, the “lethal dose” value worked out at 893 mg/kg.
Consider `CC(C)NCC(O)COc1cccc2ccccc12` (stereo not drawn) [propranolol, 1-(isopropylamino)-3-(1-naphthyloxy)-2-propanol, reference compound], for which the ED20 in the data set on myocardial ischemia is 2 µmol/kg. Also, in data set [3] (dose 1.0 μmole/kg i.v.), the “reduction in ST-segment” value is 74% and the “reduction in the pulse rate” value worked out at 35 beats/min.
`CNC(=O)c1cccc(Cc2c[nH]cn2)c1O.Cl` [C, 2-hydroxy-3-[(1H-imidazol-4-yl)methyl]-N-methylbenzamide hydrochloride]: the IC30 in data set [1] is 130 nM. In addition, in the data set with myocardial ischemia, the ED20 stood at 0.3 µmol/kg. Also, in data set [3] (dose 0.32 μmole/kg i.v.), the “reduction in ST-segment” value is reported as 50% and the “reduction in the pulse rate” value amounted to 1 beats/min. Also, the “lethal dose” value in the data set on male NMRI mice turned out to be 267 mg/kg.
For `Cl.O=C(NO)c1cccc(Cc2c[nH]cn2)c1O` [M, N,2-dihydroxy-3-[(1H-imidazol-4-yl)methyl]-benzamide hydrochloride], in data set [2] (setting [4]), the IC50 was 400 nM. In the data set on male NMRI mice, the “lethal dose” value is recorded as more than 288 mg/kg.
In the case of `CC(c1c[nH]cn1)c1ccc(O)c(C(N)=O)c1O.Cl` (stereo not drawn) [N, 2,6-dihydroxy-3-[1-(1H-imidazol-4-yl)ethyl]-benzamide hydrochloride], in the data set with male NMRI mice, the “lethal dose” value is 284 mg/kg.
Turning to `Cc1ccc(C(N)=O)c(O)c1Cc1c[nH]cn1` [L, 2-hydroxy-3-[(1H-imidazol-4-yl)methyl]-4-methylbenzamide], the IC50 in data set [2] (setting [4]) was determined as 30 nM. The “lethal dose” value in the data set with male NMRI mice worked out at 231 mg/kg.
For `NNC(=O)c1cccc(Cc2c[nH]cn2)c1O` [Compound D, 2-hydroxy-3-[(1H-imidazol-4-yl)methyl]-benzohydrazide], in data set [1], the IC30 is 220 nM. For the same compound, the ED20 in the data set with myocardial ischemia came to 3 µmol/kg. Besides, in the data set on male NMRI mice, the “lethal dose” value was determined as 232 mg/kg.
For the compound `COc1c(Cc2c[nH]cn2)cccc1C(N)=O.Cl` [F, 3-[(1H-imidazol-4-yl)methyl]-2-methoxybenzamide hydrochloride], the concentration for an effect of 30% (IC30) in data set [1] was 70 nM. Also, the IC50 in data set [2] (setting [4]) turned out to be 70000 nM. Moreover, in the data set on myocardial ischemia, the ED20 is less than 3 µmol/kg. Also, in the data set on male NMRI mice, the “lethal dose” value amounted to 802 mg/kg.
With `CC(c1c[nH]cn1)c1cccc(C(N)=O)c1O.Cl` (single isomer, unassigned; (+)) [P, (+)-2-hydroxy-3-[1-(1H-imidazol-4-yl)ethyl]-benzamide hydrochloride], in data set [2] (setting [4]), the IC50 amounted to 2 nM. Moreover, the “lethal dose” value with male NMRI mice came to 294 mg/kg.
Take `CN(C)C(=O)c1cccc(Cc2c[nH]cn2)c1O` [H, 2-hydroxy-3-[(1H-imidazol-4-yl)methyl]-N,N-dimethylbenzamide]: the “lethal dose” value in the data set with male NMRI mice is 245 mg/kg.
With `CC(c1c[nH]cn1)c1cccc(C(N)=O)c1O.Cl` (stereo not drawn) [B, 2-hydroxy-3-[1-(1H-imidazol-4-yl)ethyl]-benzamide hydrochloride], in data set [1], the 30% effect concentration (IC30) stood at 0.75 nM. Further, the IC50 in data set [2] (setting [4]) is 3 nM; in data set [2] (in the presence of 10^-6 mole/l of α-yohimbine, read-out: concentration required for reducing muscle contraction intensity by 50%), more than 1000 nM. In addition, the ED20 with myocardial ischemia came to 0.02 µmol/kg. Further, the “lethal dose” value in the data set on male NMRI mice stood at 267 mg/kg.
